As usually defined, the ED50 is the dose that gives a 50% effect, or the effect in half of the subjects.

The assay deals with leptazol induced seizures in mice. The assay can be described thus: potentiation of the threshold of leptazol induced seizures in mice. Format: in vivo. The following applies: ip. The procedure:
Potentiation of the threshold of leptazol induced seizures in mice by active compounds was measured by the method of Lichfiel et al (J. Pharmacol. Exp. Ther. (1949) Vol. 96 Page. 99).

Turning to `CN1Cc2c(C(=O)C3CC3)ncn2-c2ccccc2C1=O` [Compound 1, 3-(5,6-dihydro-5-methyl-6-oxo-4H-imidazo[1,5a][1,4]benzodiazepinyl)-cyclopropylmethanone], the median effective dose (ED50) (Mus musculus) was in the range of 1 to 2 mg/kg. For `CN1Cc2c(C(=O)C3CC3)ncn2-c2ccc(Cl)cc2C1=O` [Compound 2, (8-Chloro-5,6-dihydro-5-methyl-6-oxo-4H-imidazo[1,5-a][1,4]benzodiazepin-3-yl)-cyclopropylmethanone], the “Leptazol Seizures ED50” value is “Not active”.
